Several values for one entry are separate records, joined by “and”; a condition that tells them apart may be missing. Equal values may be shown once.
Tested on: KRAS patient-derived spheroids with HUVEC/MSC, viability
Experiment: Anticancer human tumor 941728-121-R-J1-PDC patient-derived lung adenocarcinoma cell line growth inhibition [KRAS2]
Details: for viability, T/C: stronger effect = lower value
How it was run: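 Combination screen of spheroid viability in tumor-cell co-cultures with endothelial (HUVEC) and mesenchymal stem cell stroma. Each agent was tested in half-log dilutions, topping at clinical Cmax or at 10 microM without a known Cmax.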

[1] = curve of first compound, second compound 0.1 µM
[2] = curve of first compound, second compound 0.316 µM
[3] = curve of first compound, second compound 1 µM
[4] = curve of first compound, second compound 3.16 µM
[5] = second compound 0.1 µM, first compound 0.0316 µM
[6] = second compound 0.1 µM, first compound 0.1 µM
[7] = second compound 0.1 µM, first compound 0.316 µM
[8] = second compound 0.1 µM, first compound 1 µM
[9] = second compound 0.1 µM, first compound 3.16 µM
[10] = second compound 0.1 µM, first compound 10 µM
[11] = second compound 0.316 µM, first compound 0.0316 µM
[12] = second compound 0.316 µM, first compound 0.1 µM
[13] = second compound 0.316 µM, first compound 0.316 µM
[14] = second compound 0.316 µM, first compound 1 µM
[15] = second compound 0.316 µM, first compound 3.16 µM
[16] = second compound 0.316 µM, first compound 10 µM
[17] = second compound 1 µM, first compound 0.0316 µM
[18] = second compound 1 µM, first compound 0.1 µM
[19] = second compound 1 µM, first compound 0.316 µM
[20] = second compound 1 µM, first compound 1 µM
[21] = second compound 1 µM, first compound 3.16 µM
[22] = second compound 1 µM, first compound 10 µM
[23] = second compound 3.16 µM, first compound 0.0316 µM
[24] = second compound 3.16 µM, first compound 0.1 µM
[25] = second compound 3.16 µM, first compound 0.316 µM
[26] = second compound 3.16 µM, first compound 1 µM
[27] = second compound 3.16 µM, first compound 3.16 µM
[28] = second compound 3.16 µM, first compound 10 µM
[29] = curve of first compound, second compound 10 µM
[30] = second compound 10 µM, first compound 0.0316 µM
[31] = second compound 10 µM, first compound 0.1 µM
[32] = second compound 10 µM, first compound 0.316 µM
[33] = second compound 10 µM, first compound 1 µM
[34] = second compound 10 µM, first compound 3.16 µM
[35] = second compound 10 µM, first compound 10 µM
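Further: spheroids exposed to agents for seven days before readout.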

COc1cc(Nc2ncc3c(n2)-c2ccc(Cl)cc2C(c2c(F)cccc2OC)=NC3)ccc1C(=O)O + C=CC(=O)N1CCN(c2nc(OCC3CCCN3C)nc3c2CCN(c2cccc4cccc(C)c24)C3)CC1CC#N
IC50 (curve of first compound, second compound 0.0316 µM): < 31.6 nM | IC50 [1]: < 31.6 nM | IC50 [2]: < 31.6 nM | IC50 [3]: < 31.6 nM | IC50 [4]: < 31.6 nM | viability, T/C (second compound 0.0316 µM, first compound 0.0316 µM): 32.1% | viability, T/C (second compound 0.0316 µM, first compound 0.1 µM): 29.5% | viability, T/C (second compound 0.0316 µM, first compound 0.316 µM): 26.1% | viability, T/C (second compound 0.0316 µM, first compound 1 µM): 26.3% | viability, T/C (second compound 0.0316 µM, first compound 3.16 µM): 22.9% | viability, T/C (second compound 0.0316 µM, first compound 10 µM): 20.3% | viability, T/C [5]: 33.6% | viability, T/C [6]: 30.4% | viability, T/C [7]: 25.6% | viability, T/C [8]: 25.9% | viability, T/C [9]: 22.8% | viability, T/C [10]: 20.9% | viability, T/C [11]: 30.4% | viability, T/C [12]: 26.1% | viability, T/C [13]: 26.8% | viability, T/C [14]: 26.1% | viability, T/C [15]: 22% | viability, T/C [16]: 20.3% | viability, T/C [17]: 26.5% | viability, T/C [18]: 26.3% | viability, T/C [19]: 27.1% | viability, T/C [20]: 22.9% | viability, T/C [21]: 23% | viability, T/C [22]: 16.5% | viability, T/C [23]: 0.53% | viability, T/C [24]: 0.41% | viability, T/C [25]: 0.87% | viability, T/C [26]: 0.19% | viability, T/C [27]: 0.26% | viability, T/C [28]: 0.18%

CC1OCC2(CCN(c3cnc(Sc4ccnc(N)c4Cl)c(N)n3)CC2)C1N (stereo unspecified) + CNCc1ccccc1-c1csc(C(C)Nc2nc(C)nc3cc(OC)c(OC)cc23)c1
IC50 [1]: < 31.6 nM | IC50 [2]: < 31.6 nM | IC50 [3]: < 31.6 nM | IC50 [4]: < 31.6 nM | IC50 [29]: < 31.6 nM | viability, T/C [5]: 49.5% | viability, T/C [6]: 38.1% | viability, T/C [7]: 38.1% | viability, T/C [8]: 32.5% | viability, T/C [9]: 35.3% | viability, T/C [10]: 34% | viability, T/C [11]: 41% | viability, T/C [12]: 34.7% | viability, T/C [13]: 31.2% | viability, T/C [14]: 28.9% | viability, T/C [15]: 30.2% | viability, T/C [16]: 30.1% | viability, T/C [17]: 37.6% | viability, T/C [18]: 36.6% | viability, T/C [19]: 28.2% | viability, T/C [20]: 26.2% | viability, T/C [21]: 20.9% | viability, T/C [22]: 17.8% | viability, T/C [23]: 5.49% | viability, T/C [24]: 2.19% | viability, T/C [25]: 2.26% | viability, T/C [26]: 2.13% | viability, T/C [27]: 0.72% | viability, T/C [28]: 0.85% | viability, T/C [30]: 0.11% | viability, T/C [31]: 0.12% | viability, T/C [32]: 0.4% | viability, T/C [33]: 0.22% | viability, T/C [34]: 1.25% | viability, T/C [35]: 0.16%

CC1COCCN1c1cc(-c2ccnn2C)c2ccnc(-c3ccn[nH]3)c2n1 (stereo unspecified) + CC1OCC2(CCN(c3cnc(Sc4ccnc(N)c4Cl)c(N)n3)CC2)C1N
IC50 [1]: < 10 nM | IC50 [2]: < 10 nM | IC50 [3]: < 10 nM | IC50 [4]: < 10 nM | IC50 [29]: < 10 nM | viability, T/C (second compound 0.1 µM, first compound 0.01 µM): 43.9% | viability, T/C [5]: 28.7% | viability, T/C [6]: 27.2% | viability, T/C [7]: 26.4% | viability, T/C [8]: 25.4% | viability, T/C [9]: 28.2% | viability, T/C (second compound 0.316 µM, first compound 0.01 µM): 32.9% | viability, T/C [11]: 30.4% | viability, T/C [12]: 25.3% | viability, T/C [13]: 23.1% | viability, T/C [14]: 19.9% | viability, T/C [15]: 21.6% | viability, T/C (second compound 1 µM, first compound 0.01 µM): 29.5% | viability, T/C [17]: 26.9% | viability, T/C [18]: 26.5% | viability, T/C [19]: 22.3% | viability, T/C [20]: 15.8% | viability, T/C [21]: 15.8% | viability, T/C (second compound 3.16 µM, first compound 0.01 µM): 26.8% | viability, T/C [23]: 25.3% | viability, T/C [24]: 22.4% | viability, T/C [25]: 18.8% | viability, T/C [26]: 15.9% | viability, T/C [27]: 13.7% | viability, T/C (second compound 10 µM, first compound 0.01 µM): 25.4% | viability, T/C [30]: 22.9% | viability, T/C [31]: 19.2% | viability, T/C [32]: 14.4% | viability, T/C [33]: 12.9% | viability, T/C [34]: 10.9%

COc1cc(Nc2ncc3c(n2)-c2ccc(Cl)cc2C(c2c(F)cccc2OC)=NC3)ccc1C(=O)O + C=CC(=O)N1CCN(c2nc(=O)n(-c3c(C)ccnc3C(C)C)c3nc(-c4c(O)cccc4F)c(F)cc23)C(C)C1
IC50 [1]: < 31.6 nM | IC50 [2]: < 31.6 nM | IC50 [3]: < 31.6 nM | IC50 [4]: < 31.6 nM | IC50 [29]: < 31.6 nM | viability, T/C [5]: 24.9% | viability, T/C [6]: 17.2% | viability, T/C [7]: 16% | viability, T/C [8]: 22.7% | viability, T/C [9]: 25.7% | viability, T/C [10]: 17.3% | viability, T/C [11]: 29.3% | viability, T/C [12]: 26.2% | viability, T/C [13]: 26.3% | viability, T/C [14]: 25.5% | viability, T/C [15]: 24.4% | viability, T/C [16]: 16.7% | viability, T/C [17]: 17.9% | viability, T/C [18]: 27.4% | viability, T/C [19]: 31% | viability, T/C [20]: 26.4% | viability, T/C [21]: 24.1% | viability, T/C [22]: 21% | viability, T/C [23]: 25.5% | viability, T/C [24]: 29.6% | viability, T/C [25]: 31.5% | viability, T/C [26]: 29% | viability, T/C [27]: 25.7% | viability, T/C [28]: 22.4% | viability, T/C [30]: 37% | viability, T/C [31]: 38.5% | viability, T/C [32]: 35.2% | viability, T/C [33]: 32% | viability, T/C [34]: 28.1% | viability, T/C [35]: 25.8%

COc1cc2nc(C)nc(NC(C)c3cc(N)cc(C(F)(F)F)c3)c2cc1OC1CCOC1 (stereo unspecified)
IC50 (compound alone, run of 07/19/2021): < 100 nM and 376 nM and 226 nM
